Data as given in PubChem BioAssay AID1845203 (Molecular Pharmacology Branch, DTP, NCI, 2023).
pIC50: −log10 of the molar value.

Test system: G-401 tumor spheroids, viability % test/control
Test: Anticancer human tumor G-401 cell line growth inhibition;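 further: spheroids exposed to compound for 7 days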;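 on viability, T/C: 100% = DMSO vehicle-treated spheroids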
Settings: spheroids with HUVEC and MSC; for pIC50: curve of first compound; for viability, T/C: stronger effect = lower value
Method in brief: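 Complex spheroids of malignant cells with endothelial cells and mesenchymal stem cells; agents alone or combined, from near clinical Cmax (or 10 microM if unknown) down in half-log steps, 0.25% DMSO final.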

[1] = second compound 1 µM, first compound 0.0316 µM
[2] = second compound 1 µM, first compound 0.1 µM
[3] = second compound 1 µM, first compound 0.316 µM
[4] = second compound 1 µM, first compound 1 µM
[5] = second compound 1 µM, first compound 3.16 µM
[6] = second compound 1 µM, first compound 10 µM
[7] = second compound 3.16 µM, first compound 0.0316 µM
[8] = second compound 3.16 µM, first compound 0.1 µM
[9] = second compound 3.16 µM, first compound 0.316 µM
[10] = second compound 3.16 µM, first compound 1 µM
[11] = second compound 3.16 µM, first compound 3.16 µM
[12] = second compound 3.16 µM, first compound 10 µM
[13] = second compound 10 µM, first compound 0.0316 µM
[14] = second compound 10 µM, first compound 0.1 µM
[15] = second compound 10 µM, first compound 0.316 µM
[16] = second compound 10 µM, first compound 1 µM
[17] = second compound 10 µM, first compound 3.16 µM
[18] = second compound 10 µM, first compound 10 µM
[19] = second compound 31.6 µM, first compound 0.0316 µM
[20] = second compound 31.6 µM, first compound 0.1 µM
[21] = second compound 31.6 µM, first compound 0.316 µM
[22] = second compound 31.6 µM, first compound 1 µM
[23] = second compound 31.6 µM, first compound 3.16 µM
[24] = second compound 31.6 µM, first compound 10 µM
[25] = second compound 100 µM, first compound 0.0316 µM
[26] = second compound 100 µM, first compound 0.1 µM
[27] = second compound 100 µM, first compound 0.316 µM
[28] = second compound 100 µM, first compound 1 µM
[29] = second compound 100 µM, first compound 3.16 µM
[30] = second compound 100 µM, first compound 10 µM

Structure (SMILES): COc1cc(C)[nH]c(=O)c1CN1CCc2c(Cl)cc(C(OC)C3COC3)c(Cl)c2C1=O (stereo not given) + Cn1nnc2c(C(N)=O)ncn2c1=O
- pIC50 (second compound 1 µM): 6.80
- pIC50 (second compound 3.16 µM): 6.70
- pIC50 (second compound 10 µM): 6.84
- pIC50 (second compound 31.6 µM): 6.68
- pIC50 (second compound 100 µM): 6.69
- viability, T/C [1]: 88.4%
- viability, T/C [2]: 57.9%
- viability, T/C [3]: 38.3%
- viability, T/C [4]: 31.7%
- viability, T/C [5]: 21.3%
- viability, T/C [6]: 27.6%
- viability, T/C [7]: 86.3%
- viability, T/C [8]: 63%
- viability, T/C [9]: 41.2%
- viability, T/C [10]: 30.4%
- viability, T/C [11]: 24.3%
- viability, T/C [12]: 23.5%
- viability, T/C [13]: 81%
- viability, T/C [14]: 59.9%
- viability, T/C [15]: 25.5%
- viability, T/C [16]: 33.8%
- viability, T/C [17]: 30.4%
- viability, T/C [18]: 27.2%
- viability, T/C [19]: 81.8%
- viability, T/C [20]: 60.8%
- viability, T/C [21]: 43.9%
- viability, T/C [22]: 32.2%
- viability, T/C [23]: 27.9%
- viability, T/C [24]: 23.4%
- viability, T/C [25]: 88.3%
- viability, T/C [26]: 62%
- viability, T/C [27]: 43.3%
- viability, T/C [28]: 29.6%
- viability, T/C [29]: 30.8%
- viability, T/C [30]: 24.7%

Structure (SMILES): Cc1cc(C)c(CNC(=O)c2cc(-c3ccc(CN4CCOCC4)cc3)cc3c2cnn3C2CCCC2)c(=O)[nH]1 + Cn1nnc2c(C(N)=O)ncn2c1=O
- pIC50 (second compound 1 µM): < 5.00
- pIC50 (second compound 3.16 µM): < 5.00
- pIC50 (second compound 10 µM): < 5.00
- pIC50 (second compound 31.6 µM): < 5.00
- pIC50 (second compound 100 µM): 5.06
- viability, T/C [1]: 111%
- viability, T/C [2]: 106%
- viability, T/C [3]: 95.8%
- viability, T/C [4]: 105%
- viability, T/C [5]: 87.9%
- viability, T/C [6]: 62.5%
- viability, T/C [7]: 103%
- viability, T/C [8]: 104%
- viability, T/C [9]: 105%
- viability, T/C [10]: 93.3%
- viability, T/C [11]: 80.6%
- viability, T/C [12]: 55.8%
- viability, T/C [13]: 103%
- viability, T/C [14]: 99%
- viability, T/C [15]: 97.1%
- viability, T/C [16]: 90.1%
- viability, T/C [17]: 82.6%
- viability, T/C [18]: 53.5%
- viability, T/C [19]: 94.3%
- viability, T/C [20]: 94.4%
- viability, T/C [21]: 92.9%
- viability, T/C [22]: 91.5%
- viability, T/C [23]: 80.5%
- viability, T/C [24]: 52%
- viability, T/C [25]: 96.5%
- viability, T/C [26]: 103%
- viability, T/C [27]: 94.3%
- viability, T/C [28]: 93.6%
- viability, T/C [29]: 74.2%
- viability, T/C [30]: 46.9%
